Experimental data published in PMC5330258 (Journal of medicinal chemistry, 2016).
Like-named read-outs stand apart in the source and are kept apart here. Each block holds one compound with its values, some of them ahead of it.

What was measured:
VDR = molecular target: T1, VDR (Homo sapiens, UniProt P11473); test: Lentiviral VDRE-luciferase transcriptional reporter assay; assay type: cell-based; settings: for VDR activation (in words): concentration up to 1000 nM, all three cell lines (HaCaT, Caco-2, Jurkat); for EC50: 24 h, NS: no significance
T1 sequence (P11473 1-427): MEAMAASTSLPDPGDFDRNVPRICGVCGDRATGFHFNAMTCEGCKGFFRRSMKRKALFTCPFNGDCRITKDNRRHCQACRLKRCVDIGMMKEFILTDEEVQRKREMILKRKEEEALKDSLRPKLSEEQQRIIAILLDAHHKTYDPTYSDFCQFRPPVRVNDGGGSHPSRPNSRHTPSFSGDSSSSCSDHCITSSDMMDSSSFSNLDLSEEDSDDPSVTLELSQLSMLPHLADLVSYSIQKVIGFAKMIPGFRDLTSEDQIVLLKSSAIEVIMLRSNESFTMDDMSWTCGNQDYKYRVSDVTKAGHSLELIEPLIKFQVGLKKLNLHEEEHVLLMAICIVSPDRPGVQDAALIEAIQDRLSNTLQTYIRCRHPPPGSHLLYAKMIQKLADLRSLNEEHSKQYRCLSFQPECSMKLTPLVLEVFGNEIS

SKMEL-188 melanoma cells = test: Antiproliferative activity on melanoma cells; assay type: cell-based; settings: compared with parent compounds and 1,25(OH)2D3
[1] = cited from earlier work

SMILES: C=C1/C(=C\C=C2/CCC[C@]3(C)[C@@H]([C@H](C)CCCC(C)(C)O)CC[C@@H]23)C[C@@H](O)C[C@@H]1O [1,25(OH)2D3, 1α,25-dihydroxyvitamin D3]
Calcemic effect ([1]; rats and mice): causes hypercalcemia

SMILES: C=C1/C(=C\C=C2/CCC[C@@]3(C)[C@H]2CC[C@@H]3[C@@](C)(O)C[C@@H](O)CC(C)C)C[C@@H](O)C[C@@H]1O [18b, 1α,20S,23S(OH)3D3]
Maximal inhibition values (in words) (SKMEL-188 melanoma cells): higher maximal inhibition values

SMILES: C=C1CC[C@H](O)C/C1=C/C=C1\CCC[C@@]2(C)[C@H]1CC[C@@H]2[C@@](C)(O)CCCC(C)C [20S(OH)D3, 20S-hydroxyvitamin D3]
Calcemic effect ([1]; doses up to 30 μg/kg in mice): noncalcemic

More lines, main results first:

EC50 in Jurkat cells relative to that of 18b (VDR; Jurkat cells): six times lower
SMILES: C=C1/C(=C\C=C2/CCC[C@@]3(C)[C@H]2CC[C@@H]3[C@@](C)(O)C[C@H](O)CC(C)C)C[C@@H](O)C[C@@H]1O [18a, 1α,20S,23R(OH)3D3]
Maximal inhibition values (in words) (SKMEL-188 melanoma cells): higher maximal inhibition values

VDR activation (in words) (VDR): unable to activate VDR
EC50 (VDR; read-out: VDRE activation (EC50, nM) Caco-2, Caco-2 cells): > 1000 nM
EC50 (VDR; read-out: VDRE activation (EC50, nM) HaCaT, HaCaT cells): > 1000 nM
EC50 (VDR; read-out: VDRE activation (EC50, nM) Jurkat, Jurkat cells): > 1000 nM
SMILES: C=C1CC[C@H](O)C/C1=C/C=C1\CCC[C@@]2(C)[C@H]1CC[C@@H]2[C@@](C)(O)C[C@@H](O)CC(C)C [17b, 20S,23S-dihydroxyvitamin D3]

VDR activation (in words) (VDR): strong stimulatory effect
SMILES: C=C1CC[C@H](O)C/C1=C/C=C1\CCC[C@@]2(C)[C@H]1CC[C@@H]2[C@@](C)(O)C[C@H](O)CC(C)C [17a, 20S,23R(OH)2D3]
